Read-outs that look alike come from different tables or passages of the source.

Data set [1] is described as follows: Plasma pharmacokinetics of canagliflozin and its metabolites after oral administration to CTRL and type 2 diabetic (DM) rats, UPLC-MS/MS. In kind it is in vivo, rat. The note with it: for Concentration of metabolite in rat plasma (in words): rat plasma after canagliflozin, UPLC-TOF-MS/MS identification; for Tmax / half-life / Cmax / AUC(0-inf) / MRT last: po; for half-life: read-out: t1/2z (converted); for Cmax: metabolites semi-quantitative; for AUC(0-inf): AUC0–∞, heading: AUC0–∞; for MRT last: read-out: MRT0–t. The source says:
The determination of metabolite concentrations was done by a semi-quantitative analysis method: the peak area of the metabolites was divided by the peak area of the original drug and then multiplied by the concentration of original drug.
The type 2 diabetic model was developed using a combination of a high-fat diet (HFD) and low-dose STZ injection. Briefly, rats were randomized into CTRL (control) and DM (diabetes mellitus) groups. The CTRL rats received a standard diet, whereas DM rats were fed high-fat food, which consisted of 63.5–66.5% normal chow, 1% cholesterol, 0.5% sodium cholate, 10% yolk, 12–15% lard, and 10% sucrose. DM rats were given an intraperitoneal injection of STZ (35 mg/kg, dissolved in citrate buffer, pH 4.5) after 4 weeks of dietary alteration, and CTRL rats received an equivalent injection of citrate buffer only. The blood glucose concentrations, food intake, and body weights of the rats were monitored weekly. Rats with non-fasting blood glucose levels lower than 16.67 mmol/L (300 mg/dL) were excluded from the DM group. Biochemical parameters (serum triglycerides, serum total cholesterol, and insulin) were measured on day 28 after the injection of STZ. The homeostasis model assessment of insulin resistance (HOMA-IR) was calculated by a standard equation to examine insulin sensitivity. The following experiments were performed on day 35 after STZ injection.
We performed the pharmacokinetic studies of canagliflozin after oral administration by gavage, and all rats used in this research were fasted for 12 h before dosing. CTRL and DM group rats (5 rats in each group) received a dose of canagliflozin at 20 mg/kg that was suspended in 0.5% sodium carboxymethylcellulose. A blood quantity of less than 0.3 mL was sampled via the oculi chorioideae vein after administration of canagliflozin at 1, 2, 3, 4, 5, 6, 7, 8, 10, 12, 24, 36 and 48 h under light ether anesthesia. All blood samples were immediately centrifuged at 5000 rpm for 10 min and the plasma was collected and frozen at −40 °C until analysis.
The acquisition software used were Analyst TF 1.7.1 software and Analyst software (AB Sciex, Redwood city, CA, USA). The pharmacokinetic parameters were processed by non-compartmental analysis using DAS 2.1.1 software (Mathematical Pharmacology Professional Committee of China, Shanghai, China). Data are presented as means ± SDs. Statistical differences were evaluated by Student’s t-test. A p-value of less than 0.05 indicated a statistically significant difference (SPSS 18.0 software, SPSS Inc., Chicago, IL, USA).

Data set [2] is described as follows: Stability of canagliflozin in rat plasma samples (QC samples). Format: in vitro ADME. The note with it: for Concentration found after storage (Mean ± SD): rat plasma, n = 5. On the procedure:
High, medium and low levels of QC concentrations were used to evaluate the stability of canagliflozin in plasma under the experimental conditions.
The specificity of the method was evaluated by comparing the chromatography of rat blank plasma samples with blank rat plasma spiked with standards at high, medium, low concentrations including LLOQ and rat plasma samples after oral administration of canagliflozin. The intra-day accuracy and precision were determined by analyzing five replicates of the QC samples at high, medium, and low concentrations within one day, while the inter-day accuracy and precision were conducted by determining five replicates of four levels of QCs on 3 separate days. The assay’s accuracy was represented by the […]. The precision was represented as the relative standard deviation (RSD) of the replicates. The matrix effect was determined by dividing the peak areas of canagliflozin spiked into extracted blank plasma by that of the analyte spiked in the mobile phase. The extraction recovery of canagliflozin and IS was assessed by comparing the peak areas of extracted plasma. […] […] The freeze (−80 °C)–thaw (room temperature) stability of the analytes in rat plasma was tested via three freeze–thaw cycles. […] In regard to the storage stability, the QC samples were prepared and stored at −80 °C for 30 days.

Where [3] appears, read: rat, plasma, 20 mg/kg, CTRL rats, canagliflozin 20 mg/kg oral, mean ± SD, n = 5.
The mark [4] stands for this setting: rat, plasma, 20 mg/kg, DM (type 2 diabetic) rats, canagliflozin 20 mg/kg oral, mean ± SD, n = 5.

Take `OCc1ccc([C@@H]2O[C@H](CO)[C@@H](O)[C@H](O)[C@H]2O)cc1Cc1ccc(-c2ccc(F)cc2)s1` [M8]: the “Concentration of metabolite in rat plasma (in words)” value (“Concentration of metabolite” below) in data set [1] is listed as “almost too low to quantify”.
With `Cc1ccc(C2OC(CO)C(O)C(O)C2O)cc1C(O)c1ccc(-c2ccc(F)cc2)s1` (stereo not shown) [M9], the “Concentration of metabolite” value in data set [1] is recorded as “high”. Further, in data set [1] (setting [3]), the Tmax (usually the time at which the peak concentration occurs) worked out at 5.01 ± 0.11 h; the half-life is 10.7 ± 1.63 h; the Cmax – broadly, the peak of the concentration-time curve – came out at 97.5 ± 10.8 ng/mL. Also, in data set [1] (setting [4]), the Cmax was 161 ± 10.5 ng/mL, the Tmax came to 4.75 ± 0.5 h and the half-life is 12.8 ± 8.81 h.
In the case of `Cc1ccc(C2OC(CO)C(O)C(OC3OC(C(=O)O)C(O)C(O)C3O)C2O)cc1Cc1ccc(-c2ccc(F)cc2)s1` (stereo not shown) [M7], the “Concentration of metabolite” value in data set [1] was “high”. For the same molecule, in data set [1] (setting [3]), the Tmax stood at 2.02 ± 0.11 h, the half-life is 10 ± 6.45 h and the Cmax stood at 44.9 ± 20.5 ng/mL. Besides, in data set [1] (setting [4]), the Cmax is 90.6 ± 18.7 ng/mL, the Tmax worked out at 1.81 ± 0.12 h and the half-life was 14.5 ± 4.86 h.
Take `Cc1ccc([C@@H]2O[C@H](CO)[C@@H](O)[C@H](O)[C@H]2O)cc1Cc1ccc(-c2ccc(F)cc2)s1` [Canagliflozin]: the CL/F – broadly, clearance divided by bioavailability, as obtained after extravascular dosing – in data set [1] (rat, plasma, 20 mg/kg, heading: CLz/F, CTRL rats, canagliflozin 20 mg/kg oral, mean ± SD, n = 5) was determined as 5.96 mL/min/kg. The AUC(0-inf) (usually the area under the concentration-time curve extrapolated to infinity) in data set [1] (rat, plasma, 20 mg/kg, CTRL rats, canagliflozin 20 mg/kg oral, plasma, mean ± SD, n = 5) was 56300 ng·h/mL; in data set [1] (rat, plasma, 20 mg/kg, DM (type 2 diabetic) rats, canagliflozin 20 mg/kg oral, plasma, mean ± SD, n = 5) it was 28400 ng·h/mL. Further, the Tmax in data set [1] (setting [3]) is 3.6 ± 0.89 h; in data set [1] (setting [4]), 3.2 ± 0.45 h. Further, the MRT last in data set [1] (setting [3]) amounted to 14.1 ± 1.58 h; in data set [1] (setting [4]), 12.3 ± 2.77 h. Further, the half-life in data set [1] (setting [3]) was 12.9 ± 2.64 h; in data set [1] (setting [4]) it was 10.2 ± 3.49 h. The Cmax in data set [1] (setting [3]) is 3310 ± 566 ng/mL; in data set [1] (setting [4]) it was 2230 ± 559 ng/mL. Besides, the “Stability in rat plasma (in words)” value in data set [2] (auto-sampler temperature (4 °C), 24 h) is on record as “good stability”; in data set [2] (room temperature (25 °C) for 24 h) it was “stable”; in data set [2] (storage conditions (−80 °C) for at least 30 days), “stable”; in data set [2] (−80 °C followed by three freeze and thaw cycles), “good stability”. Moreover, the Concentration found after storage (Mean ± SD) in data set [2] (autosampler (4 °C) for 24 h, nominal concentration 25) is 25.7 ± 0.33 ng/mL; in data set [2] (autosampler (4 °C) for 24 h, nominal concentration 500) it was 503.1 ± 4.41 ng/mL; in data set [2] (autosampler (4 °C) for 24 h, nominal concentration 800), 806.8 ± 5.64 ng/mL; in data set [2] (room temperature (25 °C) for 24 h, nominal concentration 25), 26.2 ± 0.96 ng/mL; in data set [2] (room temperature (25 °C) for 24 h, nominal concentration 500), 504.4 ± 3.18 ng/mL; in data set [2] (room temperature (25 °C) for 24 h, nominal concentration 800), 807.3 ± 6.12 ng/mL. For the same molecule, the Concentration found after storage (Mean ± SD) in data set [2] (three freeze–thaw cycles (each at −80 °C for 24 h), nominal concentration 25) came out at 26 ± 1.02 ng/mL; in data set [2] (three freeze–thaw cycles (each at −80 °C for 24 h), nominal concentration 500), 505.2 ± 4.12 ng/mL; in data set [2] (three freeze–thaw cycles (each at −80 °C for 24 h), nominal concentration 800), 806.2 ± 4.19 ng/mL; in data set [2] (−80 °C for 30 days, nominal concentration 25), 26.9 ± 0.85 ng/mL; in data set [2] (−80 °C for 30 days, nominal concentration 500), 504.3 ± 2.14 ng/mL; in data set [2] (−80 °C for 30 days, nominal concentration 800), 806.3 ± 3.51 ng/mL.
For the molecule `Cc1ccc(C2OC(CO)C(O)C(O)C2OC2OC(C(=O)O)C(O)C(O)C2O)cc1Cc1ccc(-c2ccc(F)cc2)s1` (stereo not shown) [M5], the “Concentration of metabolite” value in data set [1] was “high”. For the same molecule, in data set [1] (setting [3]), the Tmax was 1.8 ± 0.84 h, the half-life is 14.6 ± 18.3 h and the Cmax is 126 ± 31.1 ng/mL. For the same molecule, in data set [1] (setting [4]), the Cmax was found to be 160 ± 54.4 ng/mL, the Tmax worked out at 1.67 ± 0.58 h and the half-life was 13.3 ± 6.25 h.

Source of the values: PMC6100046, “Plasma Pharmacokinetic Determination of Canagliflozin and Its Metabolites in a Type 2 Diabetic Rat Model by UPLC-MS/MS” (Molecules : A Journal of Synthetic Chemistry and Natural …, 2018).
